Key:
[1] = test system: BT474; assay: CDI of example compounds and Lapatinib (ATPlite cell survival); format: cell-based; set-up: key: CDI = AB/(A×B); <1 synergistic; details: compound 5 μM + Lapatinib 1 μM, 72 h; Lapatinib-sensitive human breast cancer cells; CDI<1 synergistic, <0.7 very significant, >1 antagonistic
Experimental: (§1) Cells: (BT474 and SK-BR3 are Lapatinib-sensitive human breast cancer cell strains; BT/LapR and SK/LapR are secondary Lapatinib-resistant human breast cancer cell strains upon Lapatinib stimulation; MDA-MB-361 and MDA-MB-453 are natural Lapatinib-resistant human breast cancer cell strains. BT474, MDA-MB-361, SK-BR3 and MDA-MB-453 are from American Type Culture Collection (ATCC))
(§2) In a 100 mm culture dish full of adherent cells, digestion with 1 ml 0.25% pancreatin (GIBCO) was carried out at 37° C. for 5 min, and the reaction was stopped with 2 ml medium (containing 10% FBS, GIBCO). The cells were dispersed and collected. After cell count, the cells were diluted to a concentration of 1×10^5 cells/ml, and were seeded to a 96-well plate at 50 μl/well, 5000 cell/well, 60 wells in total, PBS instead of cells was added to the wells of the outmost circle, and the incubation was carried out at 37° C. for 24 h for adherence.
(§3) For the sample group, samples to be tested were diluted with DMSO to a final concentration of 5 μM; to control wells, the medium containing the same concentration of solvent corresponding to the compound was added, the concentrations of the compounds were identical in each well, 5 wells in parallel were set for each concentration, 25 μL/well, and 25 μL medium was added to each well (for the combination group, 25 μL Lapatinib was added to reach a final concentration of 1 μM). The incubation was carried out at 37° C. for 72 h.
(§4) To each well, 50 μL ATPlite kit substrate solution was added. The plate was under shaking for 3 min, and was then placed in dark for 10 min. The lysis supernatant was drawn at 100 μL/well, and placed in a luminescent plate. The incubated luminescent plate was placed in an iluminescence apparatus, and the iluminescent value was read.
(§5) Data Processing Cell survival rate (%)=Experimental group RLU/control group RLU×100%
(§6) Coefficient of drug interaction (CDI) is used to evaluate the interaction of two drugs, CDI is calculated in accordance with the following formula: CDI=AB/(A×B)×100%. The calculation is performed according to the number of live cells (luminescent value), if CDI<1, the two drugs have a synergistic effect; if CDI<0.7, the synergistic effect is very significant; if CDI=1, the effect of the two drugs in combination is the sum of the effects of the two drugs; if CDI>1, the two drugs have an antagonistic effect.

[2] = test system: MDA-MB-361; assay: as above; format: cell-based; set-up: key: CDI = AB/(A×B); <1 synergistic; details: compound 5 μM + Lapatinib 1 μM, 72 h; natural Lapatinib-resistant human breast cancer cells; CDI<1 synergistic
Experimental: as §1, §2, §3, §4, §5, §6

[3] = test system: MDA-MB-453; assay: as above; format: cell-based; set-up: key: CDI = AB/(A×B); <1 synergistic; details: compound 5 μM + Lapatinib 1 μM, 72 h; natural Lapatinib-resistant human breast cancer cells; CDI<1 synergistic
Experimental: as §1, §2, §3, §4, §5, §6

[4] = test system: SK-BR3; assay: as above; format: cell-based; set-up: key: CDI = AB/(A×B); <1 synergistic; details: compound 5 μM + Lapatinib 1 μM, 72 h; Lapatinib-sensitive human breast cancer cells; CDI<1 synergistic
Experimental: as §1, §2, §3, §4, §5, §6

[5] = test system: BT/Lap^R1.0; assay: as above; format: cell-based; details: compound 5 μM + Lapatinib 1 μM, 72 h; secondary Lapatinib-resistant human breast cancer cells; CDI<1 synergistic
Experimental: as §1, §2, §3, §4, §5, §6

[6] = test system: SK/Lap^R1.0; assay: as above; format: cell-based; details: compound 5 μM + Lapatinib 1 μM, 72 h; secondary Lapatinib-resistant human breast cancer cells; CDI<1 synergistic
Experimental: as §1, §2, §3, §4, §5, §6

[7] = molecular target: T1, Hsp70 ATPase (Homo sapiens, UniProt P0DMV8); assay: Inhibition of Hsp70 ATPase activity (malachite green); format: biochemical; details: 200 μM; repeated screening carried out twice; Hsp70/Hsp40, 1 mM ATP; read-out: Inhibitory rate (%) on activity of Hsp70 ATPase
T1 construct: made in house; host or cells: E. coli
Experimental: (1) Protein: Humanized Hsp70, Hsp40, expressed by E. coli.
(2) Sample to be tested: 26 compound solids with different colors and states. Positive drugs AZ (CAS:1054543-47-3) and VER 155008 (CAS: 1134156-31-2) were synthesized in the laboratory.
(4) ATPase Assay buffer: • 0.017% Triton X-100; • 100 mM Tris-HCl; • 20 mM KCl; • 6 mM MgCl2, pH 7.4.
1) 13.08 μl DnaK (0.15 mg/mL, 2.14 μM), 1.96 μl DnaJ (1 mg/mL, 25 μM) were dissolved in 7.96 μl Assay Buffer (0.017% Triton X-100, 100 mM Tris-HCl, 20 mM KCl, and 6 mM MgCl2, pH 7.4), and the resultant solution was added to each well of the 96 well plate;
2) to each well of the 96 well plate, 1 μL sample to be tested (5 mM) or DMSO (solvent) was added, and vortexed with a Vortex agitator for 10 min; and then standing at 37° C. for 30 min;
3) to each well, 1 μL 25 mM ATP was added, to trigger the enzymatic reaction; (in each well, the final reaction volume was 25 μL, the final concentration of DnaK was 1.12 μM, the final concentration of DnaJ was 1.96 μM, the final concentration of DMSO was 4%, the final concentration of Triton X-100 was 0.01%, the final concentration of ATP was 1 mM, and the final concentration of sample to be tested was 200 μM), the enzymatic reaction was carried out at 37° C. for 3 h;
4) 80 μL Malachite green staining solution was then added to each well, and was vortexed gently;
5) 10 μL of 34% citrate sodium was then added immediately, and vortexed gently, to stop the ATP hydrolysis not caused by ATPase;
6) the resultant mixture was mixed thoroughly at 37° C. for 15 min, and OD620 was measured.
The inhibitory rate of Hsp70 ATPase activity is calculated in accordance with the following formula: Inhibitory rate (%)=(DMSO well OD−Experimental well OD)/(DMSO well OD−Blank well OD)×100
Criteria for preliminary screening: during preliminary screening, an example compound is regarded as effective in inhibition as long as its inhibitory rate is above 20% for Hsp70 ATPase at 200 μM.

T1 sequence (P0DMV8 2-641 limits assumed): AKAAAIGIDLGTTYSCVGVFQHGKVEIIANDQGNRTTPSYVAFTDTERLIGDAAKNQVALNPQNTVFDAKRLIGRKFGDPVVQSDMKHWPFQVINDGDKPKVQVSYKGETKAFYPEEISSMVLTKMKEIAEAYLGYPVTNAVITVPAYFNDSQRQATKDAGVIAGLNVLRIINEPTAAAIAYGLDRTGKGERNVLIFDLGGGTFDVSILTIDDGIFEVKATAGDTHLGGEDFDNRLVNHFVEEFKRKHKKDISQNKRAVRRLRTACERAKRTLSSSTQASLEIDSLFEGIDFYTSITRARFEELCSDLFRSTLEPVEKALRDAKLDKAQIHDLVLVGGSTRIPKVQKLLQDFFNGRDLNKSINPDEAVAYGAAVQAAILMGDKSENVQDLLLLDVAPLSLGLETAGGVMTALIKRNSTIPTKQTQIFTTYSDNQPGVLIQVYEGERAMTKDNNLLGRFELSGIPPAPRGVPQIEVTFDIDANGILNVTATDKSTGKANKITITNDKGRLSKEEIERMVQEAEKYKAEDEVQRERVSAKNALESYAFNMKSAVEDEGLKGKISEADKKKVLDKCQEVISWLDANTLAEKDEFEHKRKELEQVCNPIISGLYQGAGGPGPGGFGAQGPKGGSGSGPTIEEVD

| SMILES | CDI of example compounds and Lapatinib, BT474 [1] | CDI of example compounds and Lapatinib, MDA-MB-361 [2] | CDI of example compounds and Lapatinib, MDA-MB-453 [3] | CDI of example compounds and Lapatinib, SK-BR3 [4] | CDI of example compounds and Lapatinib, BT/Lap^R1.0 [5] | CDI of example compounds and Lapatinib, SK/Lap^R1.0 [6] | inhibition at 200 µM [7] |
| --- | --- | --- | --- | --- | --- | --- | --- |
| COc1cc(/C=C/C(=O)NC(CC(C)C)NC(=S)Nc2ccccn2)cc(OC)c1OC (centres unmarked) [Example 31, (2E)-N-[3-methyl-1-(3-pyridin-2-ylthioureido)butyl]-3-(3,4,5-trimethoxyphenyl) acrylamide] | 1.01 | 0.85 | 1.38 | 1 | 1.2 | 0.95 | 10.5% |
| COc1cc(/C=C/C(=O)NC(NC(=S)NC2CCCCC2)C(C)(C)C)cc(OC)c1OC (centres unmarked) [Example 52, (2E)-N-[1-(3-cyclohexylthioureido)-2,2-dimethylpropyl]-3-(3,4,5-trimethoxyphenyl) acrylamide] | 0.56 | 0.92 | 1.18 | 0.88 | 0.86 | 1.11 | 35.8% |
| CC(C)(C)CC(NC(=O)/C=C/c1ccccc1)NC(=S)Nc1ccccc1 (centres unmarked) [Example 39, (2E)-N-[3,3-dimethyl-1-(3-phenylthioureido)butyl] cinnamamide] | 0.79 | 0.92 | 1.2 | 1.2 | 1.19 | 0.95 | 18.4% |
| CNC(=S)NC(CC(C)C)NC(=O)/C=C/c1cc(OC)c(OC)c(OC)c1 (centres unmarked) [Example 43, (2E)-N-[3-methyl-1-(3-methylthioureido)butyl]-3-(3,4,5-trimethoxyphenyl) acrylamide] | 1.03 | 0.95 | 1.28 | 1 | 1 | 0.93 | 7.62% |
| COc1cc(/C=C/C(=O)NC(NC(=S)Nc2ccccn2)C(C)C)cc(OC)c1OC (centres unmarked) [Example 35, (2E)-N-[2-methyl-1-(3-pyridin-2-ylthioureido)propyl]-3-(3,4,5-trimethoxyphenyl) acrylamide] | 0.96 | 0.86 | 1.37 | 0.99 | 1.04 | 0.9 | -6.13% |
| CC(C)C(NC(=O)/C=C/c1ccccc1)NC(=S)Nc1ccccc1 (centres unmarked) [Example 42, (2E)-N-[2-methyl-1-(3-phenylthioureido)propyl] cinnamamide] | 0.92 | 0.96 | 1.15 | 1.14 | 0.99 | 0.99 | -4.2% |
| COc1cc(/C=C/C(=O)NC(NC(=S)NC2CCCCC2)C(C)C)cc(OC)c1OC (centres unmarked) [Example 53, (2E)-N-[1-(3-cyclohexylthioureido)-2-methylpropyl]-3-(3,4,5-trimethoxyphenyl) acrylamide] | 0.82 | 1.19 | 1.33 | 0.97 | 0.8 | 1.23 | 24.4% |
| COc1cc(/C=C/C(=O)NC(CC(C)C)NC(=S)Nc2cccnc2)cc(OC)c1OC (centres unmarked) [Example 25, (2E)-N-[3-methyl-1-(3-pyridin-3-ylthioureido)butyl]-3-(3,4,5-trimethoxyphenyl) acrylamide] | 0.94 | 0.93 | 1.2 | 1.04 | 0.97 | 0.93 | 38.5% |
| CC(C)CC(NC(=O)/C=C/c1ccccc1)NC(=S)NC1CCCCC1 (centres unmarked) [Example 54, N-[1-(3-cyclohexylthioureido)-3-methylbutyl] cinnamamide] | 0.77 | 0.9 | 1.2 | 1.16 | 0.98 | 1.14 | 58.4% |
| O=C(/C=C/c1ccccc1)NC(NC(=S)Nc1ccccn1)C1CC1 (centres unmarked) [Example 37, (2E)-N-[cyclopropyl-(3-pyridin-2-ylthioureido)-methyl] cinnamamide] | 0.98 | 0.99 | 1.34 | 0.99 | 1.02 | 1.03 | 1.51% |
| O=C(/C=C/c1ccccc1)NC(NC(=S)Nc1ccccc1)C1CC1 (centres unmarked) [Example 41] | 0.91 | 0.91 | 1.07 | 1.09 | 0.99 | 1.02 | 22.5% |
